Some test systems named below: PC-3 prostate; NCI/ADR-RES ovarian; T-47D breast; MDA-N.
Common to all, as to assay: growth of human tumour cells (NCI), 48 h

Values joined by “and” are separate entries in the source; they are usually repeats but may differ in a detail not shown here. Equal values may be shown once.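 Test compounds were applied to cells in 96-well plates for 48 hours at 5 doses. GI50: concentration for 50% inhibition of growth. TGI denotes the concentration required for complete inhibition of growth.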 Where only a bound is given, the exact number is not on record here.

For `Nc1ncnc2c1ncn2C1OC(COS(N)(=O)=O)C(O)C1O` (configuration not stated), in the assay with PC-3 prostate, the GI50 was 0.0243 µM and the TGI worked out at 0.0587 µM.

For `CCCOc1cc2ccccc2cc1C(=O)Nc1nc(NC)c2c(ccc3nccc32)[nH]1`, in the assay on NCI/ADR-RES ovarian, the GI50 is 0.55 µM and the TGI stood at 2.48 µM. For the same molecule, in the assay with PC-3 prostate, the GI50 was 0.494 µM and the TGI stood at 2 µM.

On to `N#Cc1ccc(-c2c(-c3ncn[nH]3)sc(N3CCOCC3)c2C#N)c(F)c1`, for which the GI50 in the assay with NCI/ADR-RES ovarian is 3.19 µM; in the assay on PC-3 prostate, 0.345 µM; in the assay with T-47D breast, 0.0391 µM. The TGI in the assay with NCI/ADR-RES ovarian was above 100 µM; in the assay on PC-3 prostate, 20.3 µM; in the assay with T-47D breast, 0.522 µM.

In the case of `CC(=O)Oc1ccc2c(c1)[C@@]1(C)CCCC(C)(C)[C@@H]1CC2`, the GI50 with NCI/ADR-RES ovarian is 26 µM; in the assay on PC-3 prostate, 20.1 µM; with T-47D breast, 37.5 µM. Moreover, the values for the TGI with NCI/ADR-RES ovarian, in the assay with PC-3 prostate and in the assay with T-47D breast were 49.9 µM, 39 µM and above 100 µM, respectively.

On to `CO[C@@H]1CCN(c2nccc(Nc3cc4c(C(C)C)ccc(N5CC(CS(C)(=O)=O)[C@H]5C)c4cn3)n2)C[C@@H]1F` (some centres not stated), for which the GI50 in the assay on NCI/ADR-RES ovarian is 2.81 µM; in the assay with PC-3 prostate it was 3.52 µM; in the assay with T-47D breast, 2.47 µM. Also, the TGI in the assay on NCI/ADR-RES ovarian was 9.74 µM; in the assay on PC-3 prostate, above 100 µM; in the assay on T-47D breast, 13.4 µM.

`CN(C)C(=O)OCc1nc2c(N3CCOCC3)nc(-c3ccccc3)nc2n1C`: the GI50 in the assay with NCI/ADR-RES ovarian was 1.59 µM; in the assay on PC-3 prostate, 0.507 µM; in the assay on T-47D breast it was 1.85 µM. Further, the TGI is 6.53 µM in the assay on NCI/ADR-RES ovarian, 1.31 µM in the assay on PC-3 prostate and 4.62 µM in the assay on T-47D breast.

Turning to `CNCC/C=C1\c2cc3c(cc2-c2c1c1cc(OC)c(OC)cc1c(=O)n2C)OCO3`, the values for the GI50 with NCI/ADR-RES ovarian, with PC-3 prostate and with T-47D breast were 3.74 µM, 0.534 µM and 4.19 µM, respectively. Moreover, the TGI in the assay on NCI/ADR-RES ovarian was above 45.2 µM; with PC-3 prostate, 10.3 µM; in the assay on T-47D breast, 25.5 µM.

Consider `[N-]=[N+]=NCCCn1c2c(c3ccc([N+](=O)[O-])cc3c1=O)C(=O)c1cc3c(cc1-2)OCO3`, for which the values for the GI50 with NCI/ADR-RES ovarian, with PC-3 prostate and with T-47D breast were below 0.0114 µM, 2.24 µM and 0.656 µM, respectively. Moreover, the figures for the TGI with NCI/ADR-RES ovarian, with PC-3 prostate and in the assay on T-47D breast were below 0.041 µM, above 100 µM and above 100 µM, respectively.

As for `COCCOCCOCc1n(Cc2ccc3ccccc3c2)c2ccccc2[n+]1Cc1ccc2ccccc2c1`, the GI50 is 15.1 µM with NCI/ADR-RES ovarian, 0.344 µM with PC-3 prostate and 0.216 µM with T-47D breast. In addition, the results for the TGI with NCI/ADR-RES ovarian, in the assay on PC-3 prostate and in the assay on T-47D breast were 44.3 µM, 1.59 µM and 1.12 µM, respectively.

Take `Nc1nonc1-c1nc2ccccc2n1Cc1ccc(F)cc1`: the GI50 is 4.16 µM with NCI/ADR-RES ovarian and above 100 µM in the assay with T-47D breast. The TGI with NCI/ADR-RES ovarian and with T-47D breast was above 100 µM throughout.

Take `Cc1ccc(S(=O)(=O)N2CCCSCCSCCCN(S(=O)(=O)c3ccc(C)cc3)CC2)cc1`: the TGI in the assay with MDA-N, in the assay with NCI/ADR-RES ovarian and in the assay with T-47D breast was above 100 µM throughout.

On to `CCN(CC)c1c(-c2ccccc2)n[nH]c1C(=O)OC`, for which the GI50 with NCI/ADR-RES ovarian was 19.2 µM; in the assay with PC-3 prostate it was 31.2 µM; with T-47D breast, 17.5 µM. Besides, the TGI in the assay with NCI/ADR-RES ovarian is 37.4 µM; with PC-3 prostate it was above 100 µM; in the assay with T-47D breast it was 64.8 µM.

`COc1cc(Cl)cc(-c2nn(-c3cccc(NC(=O)Nc4cccc(C(F)(F)F)c4)c3)cc2-c2ccncc2)c1`: the GI50 with NCI/ADR-RES ovarian is 1.65 µM; in the assay with PC-3 prostate it was 0.417 µM; in the assay with T-47D breast, 1.23 µM. The TGI in the assay with NCI/ADR-RES ovarian worked out at 7.81 µM; in the assay with PC-3 prostate, 3.2 µM; in the assay with T-47D breast, 6.99 µM.

Take `Cc1c(Cl)c(=O)oc2cc(OC/C=C3\CCC(=O)O3)ccc12`: the GI50 in the assay on NCI/ADR-RES ovarian was 24.1 µM; with PC-3 prostate it was 14.2 µM; in the assay with T-47D breast, 13.6 µM. Further, the TGI was found to be 59.4 µM in the assay on NCI/ADR-RES ovarian, 38.8 µM in the assay with PC-3 prostate and 36.2 µM in the assay on T-47D breast.

With `CC1=C(/C=C/C(=O)CC(=O)/C=C/C2=C(C)CCCC2(C)C)C(C)(C)CCC1`, the figures for the GI50 in the assay on NCI/ADR-RES ovarian, with PC-3 prostate and in the assay with T-47D breast were 31.4 µM, 17.6 µM and 41.5 µM, respectively. In addition, the results for the TGI with NCI/ADR-RES ovarian, in the assay on PC-3 prostate and with T-47D breast were above 100 µM, 75.2 µM and above 100 µM, respectively.

As to `CC[C@@]1(OC(=O)C(N)CCCCN)C(=O)OCc2c1cc1n(c2=O)Cc2cc3ccccc3nc2-1` (some centres not stated), the TGI with MDA-N was 4.44 µM; in the assay with PC-3 prostate, above 100 µM; in the assay on T-47D breast it was 0.935 µM.

With `COc1cccc(-c2nn(-c3ccccc3)cc2-c2ccnc(NCCCNC(=O)c3cccc(C(F)(F)F)c3)c2)c1`, the results for the GI50 with NCI/ADR-RES ovarian, in the assay on PC-3 prostate and with T-47D breast were 3.54 µM, 3.18 µM and 2.33 µM, respectively. Moreover, the TGI with NCI/ADR-RES ovarian was 16.8 µM; in the assay on PC-3 prostate it was 24 µM; in the assay with T-47D breast, 8.4 µM.

Take `N#Cc1cnc2cc(OC[C@@H](O)CO)c(NC(=O)C3CCCC3)cc2c1Nc1ccc(OCc2cccc(F)c2)c(Cl)c1`: the GI50 in the assay with NCI/ADR-RES ovarian is 21.7 µM; in the assay with PC-3 prostate, 0.947 µM; with T-47D breast it was 1.13 µM. Besides, the TGI is above 50 µM in the assay with NCI/ADR-RES ovarian, 1.92 µM with PC-3 prostate and 4.31 µM in the assay on T-47D breast.

Turning to `CC(C)(C)OC(=O)NCCCCn1c2c(c3ccccc3c1=O)C(=O)c1ccccc1-2`, the GI50 in the assay on NCI/ADR-RES ovarian is 15.7 µM; in the assay with PC-3 prostate, 8.71 µM; in the assay with T-47D breast, 21.9 µM. Besides, the TGI with NCI/ADR-RES ovarian was 45.7 µM; with PC-3 prostate it was above 100 µM; with T-47D breast it was 79.8 µM.

As for `CCOC(=O)C(Cc1c[nH]c2cc(N(CCO)CCO)ccc12)(NC(C)=O)C(=O)OCC`, the GI50 was above 1000 µM in the assay on NCI/ADR-RES ovarian; 94.9 µM and 160 µM in the assay on PC-3 prostate; 472 µM in the assay on T-47D breast. Moreover, the TGI in the assay with NCI/ADR-RES ovarian, with PC-3 prostate and in the assay on T-47D breast was above 1000 µM throughout.

As for `CN1CCN(c2ccc(OC(F)(F)F)c(Nc3ncc4c(n3)-c3c(c(C(N)=O)nn3CCO)CC4)c2)CC1`, the GI50 with NCI/ADR-RES ovarian is 1.19 µM and 1.04 µM; in the assay on PC-3 prostate, 0.0663 µM and 0.0986 µM; in the assay with T-47D breast, 0.944 µM and 0.538 µM. Moreover, the TGI in the assay with NCI/ADR-RES ovarian was above 62.6 µM; with PC-3 prostate, above 82.4 µM; in the assay on T-47D breast it was 40.8 µM and > 10 µM.

Values taken from PubChem BioAssay (NCI).
